ChEMBL document CHEMBL4765476, “MCC950, a NLRP3 inhibitor, ameliorates lipopolysaccharide-induced lung inflammation in mice” (Bioorg Med Chem, 2021)
Calls of active or inactive are those of the source. No cut-off for these calls is given here.

Tests used:
[1] = test system: Mus musculus; assay: Antiinflammatory activity in ICR mouse assessed as reduction in LPS-induced macrophage level in BALF at 50 mg/kg, ip administered 18 hrs before LPS-stimulation and measured after 24 hrs by FACS analysis relative to control; type: functional; details: time 42 hrs
[2] = test system: Mus musculus; assay: Antiinflammatory activity in ICR mouse assessed as reduction in LPS-induced macrophages level in BALF at 10 mg/kg, INH administered 18 hrs before LPS-stimulation and measured after 24 hrs by FACS analysis relative to control; type: functional; details: time 42 hrs
[3] = species: Mus musculus; details: ICR, dose 10-50 mg/kg, time 42.0 hrs
[4] = species: Mus musculus; details: ICR, dose 10-50 mg/kg, time 42.0 hrs; remark: listed apart in the source
[5] = species: Mus musculus; details: ICR, dose 10-50 mg/kg, time 42.0 hrs; remark: listed apart in the source
[6] = test system: Mus musculus; assay: Antiinflammatory activity in ICR mouse assessed as reduction in LPS-induced lymphocyte level in BALF at 10 mg/kg, INH administered 18 hrs before LPS-stimulation and measured after 24 hrs by FACS analysis relative to control; type: functional; details: time 42 hrs
[7] = species: Mus musculus; details: ICR, dose 10-50 mg/kg, time 42.0 hrs; remark: listed apart in the source
[8] = species: Mus musculus; details: ICR, dose 10-50 mg/kg, time 42.0 hrs; remark: listed apart in the source
[9] = species: Mus musculus; details: ICR, dose 10-50 mg/kg, time 42.0 hrs; remark: listed apart in the source
[10] = test system: Mus musculus; assay: Antiinflammatory activity in ICR mouse assessed as reduction in LPS-induced macrophages level in BALF at 50 mg/kg, INH administered 18 hrs before LPS-stimulation and measured after 24 hrs by FACS analysis relative to control; type: functional; details: time 42 hrs
[11] = test system: Mus musculus; assay: Antiinflammatory activity in ICR mouse assessed as reduction in LPS-induced neutrophils in BALF at 10 mg/kg, ip administered 18 hrs before LPS-stimulation and measured after 24 hrs by FACS analysis relative to control; type: functional; details: time 42 hrs
[12] = species: Mus musculus; details: ICR, dose 10-50 mg/kg, time 42.0 hrs; remark: listed apart in the source
[13] = test system: Mus musculus; assay: Antiinflammatory activity in ICR mouse assessed as reduction in LPS-induced macrophage level in BALF at 10 mg/kg, ip administered 18 hrs before LPS-stimulation and measured after 24 hrs by FACS analysis relative to control; type: functional; details: time 42 hrs
[14] = test system: Mus musculus; assay: Antiinflammatory activity in ICR mouse assessed as reduction in LPS-induced neutrophils in BALF at 10 mg/kg, INH administered 18 hrs before LPS-stimulation and measured after 24 hrs by FACS analysis relative to control; type: functional; details: time 42 hrs
[15] = species: Mus musculus; details: ICR, dose 10-50 mg/kg, time 42.0 hrs; remark: listed apart in the source
[16] = species: Mus musculus; details: ICR, dose 10-50 mg/kg, time 42.0 hrs; remark: listed apart in the source
[17] = test system: Mus musculus; assay: Antiinflammatory activity in ICR mouse assessed as reduction in LPS-induced neutrophil infiltration in lungs at 50 mg/kg, INH administered 18 hrs before LPS-stimulation and measured after 24 hrs by H and E staining based imaging analysis relative to control; type: functional; details: time 42 hrs
[18] = species: Mus musculus; details: ICR, dose 10-50 mg/kg, time 42.0 hrs; remark: listed apart in the source
[19] = species: Mus musculus; details: ICR, dose 10-50 mg/kg, time 42.0 hrs; remark: listed apart in the source
[20] = species: Mus musculus; details: ICR, dose 10-50 mg/kg, time 42.0 hrs; remark: listed apart in the source
[21] = test system: Mus musculus; assay: Antiinflammatory activity in ICR mouse assessed as reduction in LPS-induced neutrophils in BALF at 50 mg/kg, ip administered 18 hrs before LPS-stimulation and measured after 24 hrs by FACS analysis relative to control; type: functional; details: time 42 hrs
[22] = test system: Mus musculus; assay: Antiinflammatory activity in ICR mouse assessed as reduction in LPS-induced neutrophil infiltration in lungs at 10 mg/kg, ip administered 18 hrs before LPS-stimulation and measured after 24 hrs by H and E staining based imaging analysis relative to control; type: functional; details: time 42 hrs
[23] = test system: Mus musculus; assay: Antiinflammatory activity in ICR mouse assessed as reduction in LPS-induced lymphocyte level in BALF at 50 mg/kg, ip administered 18 hrs before LPS-stimulation and measured after 24 hrs by FACS analysis relative to control; type: functional; details: time 42 hrs
[24] = test system: Mus musculus; assay: Antiinflammatory activity in ICR mouse assessed as reduction in LPS-induced neutrophil infiltration in lungs at 10 mg/kg, INH administered 18 hrs before LPS-stimulation and measured after 24 hrs by H and E staining based imaging analysis relative to control; type: functional; details: time 42 hrs
[25] = test system: Mus musculus; assay: Antiinflammatory activity in ICR mouse assessed as reduction in LPS-induced neutrophil infiltration in lungs at 50 mg/kg, ip administered 18 hrs before LPS-stimulation and measured after 24 hrs by H and E staining based imaging analysis relative to control; type: functional; details: time 42 hrs
[26] = test system: Mus musculus; assay: Antiinflammatory activity in ICR mouse assessed as reduction in LPS-induced lymphocyte level in BALF at 50 mg/kg, INH administered 18 hrs before LPS-stimulation and measured after 24 hrs by FACS analysis relative to control; type: functional; details: time 42 hrs
[27] = test system: Mus musculus; assay: Antiinflammatory activity in ICR mouse assessed as reduction in LPS-induced lymphocyte level in BALF at 10 mg/kg, ip administered 18 hrs before LPS-stimulation and measured after 24 hrs by FACS analysis relative to control; type: functional; details: time 42 hrs
[28] = species: Mus musculus; details: ICR, dose 10-50 mg/kg, time 42.0 hrs; remark: listed apart in the source
[29] = species: Mus musculus; details: ICR, dose 10-50 mg/kg, time 42.0 hrs; remark: listed apart in the source
[30] = species: Mus musculus; details: ICR, dose 10-50 mg/kg, time 42.0 hrs; remark: listed apart in the source
[31] = species: Mus musculus; details: ICR, dose 50.0 mg/kg, time 42.0 hrs
[32] = test system: Mus musculus; assay: Antiinflammatory activity in ICR mouse assessed as reduction in LPS-induced neutrophils in BALF at 50 mg/kg, INH administered 18 hrs before LPS-stimulation and measured after 24 hrs by FACS analysis relative to control; type: functional; details: time 42 hrs
[33] = species: Mus musculus; details: ICR, dose 10.0 mg/kg, time 42.0 hrs

For `CC(C)(O)c1coc(S(=O)(=O)NC(=O)Nc2c3c(cc4c2CCC4)CCC3)c1`, the inhibition in vivo at 50 mg/kg [1] was 76.7%, the inhibition in vivo at 10 mg/kg [2] was 36.6% and the inhibition [3] was “Active”. The inhibition [4] was “Active”, the inhibition [5] was “Active” and the inhibition in vivo at 10 mg/kg [6] was 28.3%. For the same molecule, the inhibition [7] was “Active”, the inhibition [8] was “Active” and the inhibition [9] was “Active”. The inhibition in vivo at 50 mg/kg [10] was 43.8%, the inhibition in vivo at 10 mg/kg [11] was 44.2% and the inhibition [12] was “Active”. The inhibition in vivo at 10 mg/kg [13] was 53.2%, the inhibition in vivo at 10 mg/kg [14] was 46.5% and the inhibition [15] was “Active”. For the same molecule, the inhibition [16] was “Active”, the inhibition in vivo at 50 mg/kg [17] was 52.9% and the inhibition [18] was “Active”. The inhibition [19] was “Active”, the inhibition [20] was “Active” and the inhibition in vivo at 50 mg/kg [21] was 67.8%. For the same molecule, the inhibition in vivo at 10 mg/kg [22] was 37.1%, the inhibition in vivo at 50 mg/kg [23] was 49.8% and the inhibition in vivo at 10 mg/kg [24] was 35.3%. For the same molecule, the inhibition in vivo at 50 mg/kg [25] was 51.4%, the inhibition in vivo at 50 mg/kg [26] was 34.9% and the inhibition in vivo at 10 mg/kg [27] was 40.3%. The inhibition [28] was “Active”, the inhibition [29] was “Active” and the inhibition [30] was “Active”. The inhibition [31] was “Active”, the inhibition in vivo at 50 mg/kg [32] was 71.7% and the inhibition [33] was “inactive”.
